Results on 13 molecules are retold here after patent US12655156B2, “Oxadiazolopyrazines and oxadiazolopyridines useful as mitochondrial uncouplers” (Virginia Tech Intellectual Properties, Inc., priority 2018, dated 2026).

In general, EC50 refers to the concentration needed to bring the measured effect to its halfway point. A high value points to a less potent agent.

The first test has as its system humans.
Assay: not given
To be noted: patients consuming ~300 mg/d, over several months, without changes in food intake; cited from earlier work.
Take `O=[N+]([O-])c1ccc(O)c([N+](=O)[O-])c1` [DNP, 2,4-dinitrophenol]: the Average weight loss is listed as 1.5 pounds per week.

Another test relates to Male C57BL/6J mice on western diet. The test is described as follows: Diet induced obesity reversal mouse study. The class given is in vivo. To be noted: WD containing 1-112, ~60 mg/kg/day, after 28 days of WD. From the text:
FIGS. 2A-2C. Diet induced obesity reversal data, for mice given a regular chow diet, a Western diet, or a Western diet plus compound 1-112. FIG. 2A, Body mass versus time; FIG. 2B, fat mass (measured by EchoMRI) versus time; FIG. 2C, food intake (last 14 days) versus time.
Male C57BL/6J mice aged 3 months were assigned to either normal chow diet (Chow, n=5) or western diet (WD, n=10) for 28 days. After 28 days half of the WD group were switched to WD containing compound 1-112 at a concentration resulting in consumption of ˜60 mg/kg/day 1-112 (1-112 60 mpk). Body mass (A), fat mass (measured by EchoMRI (B)), and food intake (C, for the final 14 days) were recorded as indicated.
As for `Oc1nc2nonc2nc1Nc1ccc(-c2ccc(F)cc2)cc1` [1-112, 6-((4′-fluoro-[1,1′-biphenyl]-4-yl)amino)-[1,2,5]oxadiazolo[3,4-b]pyrazin-5-ol], the Body mass entry is “lost body weight”; the “Fat mass (measured by EchoMRI)” value was “lost body weight and fat mass”.

The same test, now with this note: WD containing 1-112, ~60 mg/kg/day; final 14 days.
With `Oc1nc2nonc2nc1Nc1ccc(-c2ccc(F)cc2)cc1` [1-112, 6-((4′-fluoro-[1,1′-biphenyl]-4-yl)amino)-[1,2,5]oxadiazolo[3,4-b]pyrazin-5-ol], the Food intake result was “without a significant change in food intake”.

Another test concerns whole cells (NMuLi, C2C12, and L6 cells, isolated cardiomyocytes, human primary fibroblasts). The test is described as follows: Oxygen consumption rate (OCR) in whole cells, Seahorse XF-24 Flux Analyzer. The test is classed as cell-based. To be noted: increase in OCR; binned EC50 values. In a few lines: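 NMuLi, C2C12 and L6 cells (3.5×10^4/well), cardiomyocytes (4×10^4/well) and human primary fibroblasts (1.1×10^4/well) adhered 24 h, then equilibrated 30 min at 37° C in unbuffered DMEM with pyruvate and glutamine, pH 7.4. Compounds injected during run; OCR read over 2 min periods. EC50 for OCR increase, binned.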
With `Oc1nc2nonc2nc1Nc1ccc(-c2ccc(F)cc2)cc1` [1-112, 6-((4′-fluoro-[1,1′-biphenyl]-4-yl)amino)-[1,2,5]oxadiazolo[3,4-b]pyrazin-5-ol], the EC50 was no more than 5 µM. For the molecule `Oc1nc2nonc2nc1Nc1ccc(C(F)(F)F)nc1` [1-208, 6-((6-(trifluoromethyl)pyridin-3-yl)amino)-[1,2,5]oxadiazolo[3,4-b]pyrazin-5-ol], the EC50 is greater than 20 µM.

As to `Oc1nc2nonc2nc1NC1CCCCC1` [1-212, 6-(cyclohexylamino)-[1,2,5]oxadiazolo[3,4-b]pyrazin-5-ol], the EC50 is greater than 20 µM. On the same count and under the same terms, then `COc1nc2nonc2cc1Nc1ccc(-c2ccc(C(F)(F)F)nc2)cc1` [1-225, 5-methoxy-N-(4-(6-(trifluoromethyl)pyridin-3-yl)phenyl)-[1,2,5]oxadiazolo[3,4-b]pyridin-6-amine], with greater than 20 µM. Same read-out and setting: then `Oc1nc2nonc2cc1Nc1cccc(OC(F)(F)F)c1` [1-229, 6-((3-(trifluoromethoxy)phenyl)amino)-[1,2,5]oxadiazolo[3,4-b]pyridin-5-ol], with 5 to 20 µM; and `Oc1nc2nonc2cc1Nc1ccc(OC(F)(F)F)c(F)c1` [1-230, 6-((3-fluoro-4-(trifluoromethoxy)phenyl)amino)-[1,2,5]oxadiazolo[3,4-b]pyridin-5-ol], with greater than 20 µM. The same measure, in the same setting: the result for `Oc1nc2nonc2cc1Nc1cccc(C(F)(F)F)c1F` [1-232, 6-((2-fluoro-3-(trifluoromethyl)phenyl)amino)-[1,2,5]oxadiazolo[3,4-b]pyridin-5-ol] reads greater than 20 µM; that for `Oc1nc2nonc2cc1Nc1cccc(C(F)(F)F)c1` [1-234, 6-((3-(trifluoromethyl)phenyl)amino)-[1,2,5]oxadiazolo[3,4-b]pyridin-5-ol], greater than 20 µM.

In turn, `Oc1nc2nonc2cc1Nc1ccc(C(F)(F)F)cc1` [1-242, 6-((4-(trifluoromethyl)phenyl)amino)-[1,2,5]oxadiazolo[3,4-b]pyridin-5-ol] yielded an EC50 greater than 20 µM.

Consider `Oc1nc2nonc2cc1Nc1cc(C(F)(F)F)cc(C(F)(F)F)c1` [1-243, 6-((3,5-bis(trifluoromethyl)phenyl)amino)-[1,2,5]oxadiazolo[3,4-b]pyridin-5-ol], for which the EC50 was no more than 5 µM. Consider `Oc1nc2nonc2cc1Nc1cccc(F)c1F` [1-250, 6-((2,3-difluorophenyl)amino)-[1,2,5]oxadiazolo[3,4-b]pyridin-5-ol], for which the concentration giving a half-maximal response (EC50) is no more than 5 µM. Consider `Oc1nc2nonc2cc1Nc1ccc(OC(F)(F)F)cc1F` [1-251, 6-((2-fluoro-4-(trifluoromethoxy)phenyl)amino)-[1,2,5]oxadiazolo[3,4-b]pyridin-5-ol], for which the EC50 was no more than 5 µM.
